The values that follow come from patent US20200197355A1, “METHODS, COMPOSITIONS AND CONTAINERS FOR REDUCING SOLID FORM QUERCETIN DEGRADATION AND 2-(3,4-DIHYDROXYBENZOYLOXY)-4,6-DIHYDROXYBENZOIC ACID TOXIC BYPRODUCTS THEREOF” (PUBLIC JOINT STOCK COMPANY "SCIENTIFICINDUSTRIALCENTRE …, priority 2018, published 2020).

Structures are written as SMILES. Values after ≈ are worked out from the molar mass of the structure shown.

Data set [1] concerns MDA-MB231 human breast cancer cells. The data set can be described thus: Toxicity of DB-DBA, CellTiter 96 AQueous One Solution cell viability assay, 72 h. The class given is cell-based. The note with it: Homo sapiens, MDA-MB-231; MDA-MB231, 72 h, 37° C. As to the method: (§1) Toxicity of DB-DBA (2-(3,4-dihydroxybenzoyloxy)-4,6-dihydroxybenzoic acid) was assessed in 96-well plates (Thermofisher, Walthman, Mass.) on 1×10^3 MDA-MB231 human breast cancer cells/well. DB-DBA was diluted to concentrations from 500 to 20 ug/ml. The plate was incubated at 37° C. for 72 h. Cell viability was measured in a CellTiter 96® AQueous One Solution Cell Proliferation Assay (Promega, Madison, Wis.), according to the manufacturer's protocol.

Test in data set [2]: as above
The class given is cell-based, human. The note with it: human, MDA-MB231 breast cancer cells, 72 h. As to the method: as §1

The test system of data set [3] is human lymphoblastoid TK6 cells. Conditions: cited from earlier work.
Data set [4] deals with human lymphoblastoid cell line K562. The note with it: cited from earlier work.
Data set [5] deals with retinal pigmented epithelial cells (ARPE-19). Conditions: cited from earlier work.
The subject of data set [6] is human lymphoblastoid TK6 cells. Conditions: cited from earlier work. This is another data set of the same source.
For data set [7] the following is noted: humans, cited from earlier work.

As to `O=C(Oc1cc(O)cc(O)c1C(=O)O)c1ccc(O)c(O)c1` [DB-DBA, 2-(3,4-dihydroxybenzoyloxy)-4,6-dihydroxybenzoic acid], the IC50 (as a rule, the concentration that inhibits the measured activity by half) in data set [1] was 75 µg/mL (≈ 245 µM). Also, the viability (usually a read-out of living cells in per cent, often relative to untreated cells) at 72 h, 20 microgram/ml in data set [2] (DB-DBA 20 microgram/ml) turned out to be 95%. Also, the viability at 72 h, 50 microgram/ml in data set [2] (DB-DBA 50 microgram/ml) stood at 62%. The same molecule came in with a viability at 72 h, 100 microgram/ml in data set [2] (DB-DBA 100 microgram/ml) of 41%. Moreover, the viability at 72 h, 250 microgram/ml in data set [2] (DB-DBA 250 microgram/ml) came to 19%. The same molecule gave a viability at 72 h, 500 microgram/ml in data set [2] (DB-DBA 500 microgram/ml) of 10%.
Consider `O=C(O)c1cc(O)c(O)c(OC(=O)c2cc(O)c(O)c(O)c2)c1` [DGA, Digallic acid], for which, in data set [3], the “IC50 by MTT assay” value is given as 8.5 microgram/ml. The “concentrations causing DNA fragmentation” value in data set [4] is given as 200-800 microgram/ml. The “IC50 (cytotoxicity)” value in data set [5] was 47 microgram/ml. Moreover, the “concentrations causing DNA fragmentation, caspase-3/8 activation and PARP cleavage” value in data set [6] is given as 2.5-10 microgram/ml.
In the case of `O=c1c(O)c(-c2ccc(O)c(O)c2)oc2cc(O)cc(O)c12` [quercetin, 2-(3,4-dihydroxyphenyl)-3,5,7-trihydroxy-4H-chromen-4-one], in data set [7] (after ingestion in foods or supplements), the elimination half-life was 1 to 2 h. Also, the bioavailability in data set [7] was 0-50%.
